# Experimental data taken from patent US11980596B2 (priority 2017, dated 2024).
# Assays:
# [1] = test system: patients with treatment-resistant depression (TRD); test: Vital signs: blood pressure and heart rate (Example 7); type: in vivo, human; settings: post-dose
# Description: Adverse events were monitored throughout the study. Other safety assessments (i.e., laboratory tests, vital signs, physical examination) were performed at pre-specified time points. Vital signs, the Clinician Administered Dissociative States Scale (CADSS; Bremner, “Measurement of dissociative states with the clinician-administered dissociative states scale (CADSS)”, J. Traumatic Stress, 1998, 11(1):125-136), and the 4-item positive symptom subscale from the Brief Psychiatric Rating Scale (BPRS; Overall, “The Brief Psychiatric Rating Scale. Psychological Reports”, 1962, 10:799-812) were assessed pre-dose, at 40 minutes, and 2 hours post-dose.
# [2] = test system: patients with treatment-resistant depression (TRD); test: GAD-7 (Example 7); type: in vivo, human
# Description: (§1) Overall illness severity was assessed on the Clinical Global Impression of Severity (CGI-S) scale (Guy, “ECDEU Assessment Manual for Psychopharmacology—Revised (DHEW Publ No ADM 76-338)”, Rockville, Md.: U.S. Department of Health, Education, and Welfare, Public Health Service, Alcohol, Drug Abuse, and Mental Health Administration, NIMH Psychopharmacology Research Branch, Division of Extramural Research Programs; 1976, pp 218-222). Participants assessed their severity of anxiety on the Generalized Anxiety Disorder 7-item (GADS-7) Scale (See, Tables 157 and 158). See, Spitzer, “A brief measure for assessing generalized anxiety disorder—the GAD-7”, Arch. Intern. Med., 2006, 166(10): 1092-1097.
# [3] = Clinical pharmacokinetics of esketamine (label)
# [4] = test system: subjects with MDD at imminent risk for suicide; test: Study completion/withdrawal, double-blind phase ([…]2001); type: in vivo, human; settings: esketamine 84 mg; all randomized analysis set, N = 36
# Description: Of the 68 subjects in the all randomized analysis set, 19 (27.9%) subjects discontinued from the double-blind phase. More subjects in the esketamine 84 mg group discontinued due to adverse events (5 subjects in the esketamine 84 mg group versus 1 subject in the placebo group) whereas more subjects in the placebo group discontinued due to lack of efficacy (4 subjects in the placebo group versus 1 subject in the esketamine 84 mg group).
# CYP2B6, CYP3A4, CYP1A2 = test: CYP induction in human hepatocytes
# [5] = test system: patients with treatment-resistant depression (TRD); test: CGI-S (Example 7); type: in vivo, human
# Description: as §1
# adult female rats = settings: single intranasal dose; 200-gram rat
# rat = test: 2-year rat carcinogenicity study; type: in vivo; settings: once-daily intranasal 4.5, 15 and 45 mg/kg/day; 2 years
# [6] = test system: elderly subjects with TRD; settings: post dose
# Description: The Clinician Administered Dissociative States Scale (CADSS) was measured prior to the start of each dose, at 40 minutes, and 1.5 hours postdose.
# rat liver cells = test: In vivo Comet assay; settings: intravenously-administered
# [7] = test system: subjects with MDD at imminent risk for suicide; test: MADRS suicide item ([…]2001); type: in vivo, human; settings: 84 mg; Day 1: 4-hours postdose, Day 2 (DB), End Point (DB); two-sided level 0.20
# From the text: • a. Changes from baseline to Day 2 and Day 25 for the MADRS total score • b. Changes from baseline to Day 1 4-hours postdose, Day 2 and Day 25 for the MADRS Suicide Item • c. Changes from baseline to Day 1 4-hours postdose, Day 2, and Day 25 for the clinical global judgment of suicide risk from the Suicide Ideation and Behavior Assessment Tool (SIBAT) • d. Sustained response (Onset of Clinical Response) defined as at least 50% reduction from baseline in MADRS total score with onset on Day 1 that is maintained through the end of the double-blind phase (Day 25) • e. Changes from baseline to Day 1 4-hours postdose, Day 2, and Day 25 for the Beck Scale for Suicidal Ideation (BSS) • f. Changes from baseline to Day 1 4-hours postdose and Day 25 for the Beck Hopelessness Scale
# Results of the change from baseline over time for the suicide item from the MADRS assessment can be found in Attachment 1.
# [8] = test system: P-gp, BCRP, OATP1B1, OATP1B3, MATE1, MATE2-K, OCT2, OAT1, OAT3; test: Transporter substrate and inhibition studies; settings: not told
# [9] = test system: subjects with MDD at imminent risk for suicide; test: Beck Hopelessness Scale (BHS) ([…]2001); type: in vivo, human; settings: for BHS total score: change vs placebo: 84 mg
# From the text: The BHS is a self-reported measure to assess one's level of negative expectations or pessimism regarding the future. It consists of 20 true-false items that examine the respondent's attitude over the past week by either endorsing a pessimistic statement or denying an optimistic statement. For every statement, each response is assigned a score of 0 or 1. The total BHS score is a sum of item responses and ranges from 0 to 20, with a higher score representing a higher level of hopelessness.
# [10] = Period 1, esketamine 28 mg intranasal
# [11] = Period 1, esketamine 56 mg intranasal
# [12] = Period 1, esketamine 84 mg intranasal
# [13] = Period 2, esketamine 28 mg intranasal
# [14] = Period 2, esketamine 56 mg intranasal
# [15] = Period 2, esketamine 84 mg intranasal
# [16] = human, plasma, other: nasal spray
# [17] = esketamine 84 mg minus placebo, ANCOVA LOCF
# [18] = esketamine 84 mg, LOCF, ITT, N = 35
# [19] = esketamine 84 mg, LOCF, ITT, N = 35, negative change = improvement
smiles,measurement,setting,value
"CN[C@]1(c2ccccc2Cl)CCCCC1=O [esketamine, (S)-2-(2-chlorophenyl)-2-(methylamino)cyclohexanone]",Inhibition potential against CYPs and UGTs,CYPs and UGTs,did not show inhibition potential
same,Elevated blood pressure returned to the normal range by,[1],≤ 2 h
same,S-Ketamine QC sample long-term storage stability,at −20° C.,707 days at −20 °C
same,S-Ketamine QC sample freeze/thaw stability,freeze (−20° C.)/thaw (room temperature),3 freeze (−20° C.)/thaw (room temperature) cycles
same,S-Ketamine QC sample bench-top stability,room temperature,18 hours at room temperature
same,"GAD-7 change from baseline, LS mean (SE)",[2]; [10],−1.5 (1.34)
same,"GAD-7 change from baseline, LS mean (SE)",[2]; [11],−3.1 (1.34)
same,"GAD-7 change from baseline, LS mean (SE)",[2]; [12],−5.1 (1.30)
same,"GAD-7 change from baseline, LS mean (SE)",[2]; [13],−1.6 (0.87)
same,"GAD-7 change from baseline, LS mean (SE)",[2]; [14],1.0 (0.98)
same,"GAD-7 change from baseline, LS mean (SE)",[2]; [15],−0.9 (1.02)
same,Time to reach maximum plasma concentration,[3]; after the last nasal spray of a treatment session,20 to 40 min
same,Presence in human milk,"[3]; human, in vivo",present in human milk
same,bioavailability,"[3]; human, plasma, inhaled or intranasal",~48%
same,clearance,"[3]; human, plasma, iv",~1480 mL/min
same,"Inter-subject variability, AUC∞",[3]; [16],18% to 45
same,"Inter-subject variability, Cmax",[3]; [16],27% to 66
same,"Intra-subject variability, AUC∞",[3]; [16],~10%
same,"Intra-subject variability, Cmax",[3]; [16],approximately 15%
same,Dose excreted as unchanged drug in urine,[3]; nasal,Less than 1%
same,Accumulation in plasma,[3]; twice a week administration,No accumulation
same,Withdrawn from double-blind phase: Lack of Efficacy,[4],1 (2.8%) subjects (%)
same,Induction of CYP1A2,"CYP2B6, CYP3A4, CYP1A2; hepatocytes",do not induce
same,Induction of CYP2B6 and CYP3A4,"CYP2B6, CYP3A4, CYP1A2; human hepatocytes",modest induction effects
same,CGI-S Median (Range) at end point,[5]; [10],"4.0 (3, 5)"
same,CGI-S Median Change (Range),[5]; [10],"−1.0 (−2, 1)"
same,CGI-S Median (Range) at end point,[5]; [11],"4.0 (1, 5)"
same,CGI-S Median Change (Range),[5]; [11],"−1.0 (−3, 0)"
same,CGI-S Median (Range) at end point,[5]; [12],"4.0 (1, 6)"
same,CGI-S Median Change (Range),[5]; [12],"−0.5 (−4, 0)"
same,CGI-S Median (Range) at end point,[5]; [13],"4.0 (3, 5)"
same,CGI-S Median Change (Range),[5]; [13],"−1.0 (−1, 0)"
same,CGI-S Median (Range) at end point,[5]; [14],"5.0 (4, 6)"
same,CGI-S Median Change (Range),[5]; [14],"−1.0 (−2, 0)"
same,CGI-S Median (Range) at end point,[5]; [15],"4.0 (3, 5)"
same,CGI-S Median Change (Range),[5]; [15],"−1.0 (−2, 0)"
same,Highest dose equivalent with no findings of neuronal vacuolation in the brain,adult female rats,45 mg/kg
same,Incidence of tumors,rat,did not increase the incidence of tumors
same,Dissociative and perceptual change symptoms (CADSS) resolved by,[6],≤ 1.5 h
same,Genotoxicity,rat liver cells,devoid of genotoxic properties
same,MADRS suicide item: change from baseline vs placebo,[7],Statistically significant differences favoring esketamine
same,"Inhibition of P-gp, BCRP, OATP1B1, OATP1B3, MATE1, MATE2-K, OCT2, OAT1 or OAT3",[8],do not inhibit
same,"Substrate of P-gp, BCRP, OATP1B1 or OATP1B3",[8],not a substrate
same,BHS total score: change vs placebo,[9]; Day 1: 4-hours postdose,no statistically significant difference
same,BHS total score: change vs placebo,[9]; End Point (DB),statistically superior
same,"BHS total score, change to Day 1 (DB): 4H, Diff. of LS Means (SE)",[9]; [17],−1.5 (1.47)
same,"BHS total score, change to End Point (DB), Diff. of LS Means (SE)",[9]; [17],−2.3 (1.66)
same,"BHS total score, Day 1 (DB): 4H, Median (Range)",[9]; [18],14.0 (0; 20)
same,"BHS total score, End Point (DB), Mean (SD)",[9]; [18],6.2 (5.96)
same,"BHS total score, End Point (DB), Median (Range)",[9]; [18],4.0 (0; 20)
same,"BHS total score, Change from Baseline to Day 1 (DB): 4H, Mean (SD)",[9]; [19],−4.1 (5.63)
same,"BHS total score, Change from Baseline to Day 1 (DB): 4H, Median (Range)",[9]; [19],−2.0 (−16; 2)
same,"BHS total score, Change from Baseline to End Point (DB), Median (Range)",[9]; [19],−11.0 (−19; 0)
same,"BHS total score, Baseline (DB), Median (Range)","[9]; esketamine 84 mg, predose Day 1, ITT, N = 35",17.0 (9; 20)
